According to patent publication US20160113282A1 (HONBU SANKEI CO., LTD., priority 2013, published 2016):
Where “and” joins values, the source holds several entries; their conditions need not be identical. Identical values can stand only once. Like-named read-outs stand apart in the source and are kept apart here.

Experiments:
influenza viruses = details: pH 6.5 (FIG. 4)
[1] = system: influenza virus Type A Aichi strain A/Aichi/68 (H3N2); type: cell-based
[2] = system: feline calicivirus F4 strain; assay: Inactivation of feline caliciviruses (Example 10), plaque assay on CRFK cells; type: cell-based
[3] = system: feline calicivirus F4 strain
[4] = system: poliovirus type I live vaccine strain
[5] = system: Herpes simplex virus type I VR-539; assay: Inactivation of herpesviruses, plaque assay on Vero cells; type: cell-based

chlorous acid [Chlorous acid aqueous solution]
contact needed to completely inactivate influenza viruses (influenza viruses; 5 ppm chlorous acid concentration): one minute or less | time after which disinfecting of influenza viruses was almost completed (influenza viruses; 5 ppm upon contact): ~30 s | concentration at which influenza viruses were inactivated to below the detectable limit ([1]; pH 5.5): ≤ 100 ppm | ratio of the amount of residual infectious viruses ([1]; pH 5.5): 0.34 | infectious viruses decreased to ([1]; pH 6.5): about 1% | ratio of the amount of residual infectious viruses ([1]; pH 6.5): 0.63 | concentration at which viruses were inactivated to about the detectable limit ([1]; pH 7.5): 200 ppm | ratio of the amount of residual infectious viruses ([1]; pH 7.5): 1.16 | virus disinfection effect on influenza viruses ([1]; pH 7.5): significant virus disinfection effect | effect on influenza viruses ([1]; pH 8.5): there is an effect even at pH of 8.5 | ratio of the amount of residual infectious viruses ([1]; pH 8.5): 1.31 | active chlorine concentration at which feline caliciviruses were inactivated to below the detectable limit [2]: ≥ 200 ppm | effect of pH on inactivation of feline caliciviruses [2]: hardly any effect due to pH | concentration with disinfecting capability against feline caliciviruses [3]: 400 ppm | ratio of the amount of residual infectious viruses [3]: 0.38 and 0.66 | disinfection of polioviruses [4]: disinfection was only observed at pH of 5.5 | concentration at which most polioviruses were disinfected ([4]; pH 5.5): 500 ppm | concentration exhibiting a superb sterilizing effect on HSV-I ([5]; pH 4.5-5.5): ≥ 100 ppm | Number of Residual Viruses in Test Solution/Number of Residual Viruses only with Buffer × 100 (%) ([5]; pH 4.5, 10 ppm): 48% | Number of Residual Viruses in Test Solution/Number of Residual Viruses only with Buffer × 100 (%) ([5]; pH 4.5, 50 ppm): 1.3% | Number of Residual Viruses in Test Solution/Number of Residual Viruses only with Buffer × 100 (%) ([5]; pH 4.5, 100 ppm): <0.3% | Number of Residual Viruses in Test Solution/Number of Residual Viruses only with Buffer × 100 (%) ([5]; pH 4.5, 100 ppm, listed as chlorous acid aqueous solution): below the detectable limit | Number of Residual Viruses in Test Solution/Number of Residual Viruses only with Buffer × 100 (%) ([5]; pH 4.5, 150 ppm): <0.2% | Number of Residual Viruses in Test Solution/Number of Residual Viruses only with Buffer × 100 (%) ([5]; pH 4.5, 150 ppm, listed as chlorous acid aqueous solution): below the detectable limit | Number of Residual Viruses in Test Solution/Number of Residual Viruses only with Buffer × 100 (%) ([5]; pH 4.5, 200 ppm): <0.4% | Number of Residual Viruses in Test Solution/Number of Residual Viruses only with Buffer × 100 (%) ([5]; pH 4.5, 200 ppm, listed as chlorous acid aqueous solution): below the detectable limit | Number of Residual Viruses in Test Solution/Number of Residual Viruses only with Buffer × 100 (%) ([5]; pH 5.5, 10 ppm): 100% | Number of Residual Viruses in Test Solution/Number of Residual Viruses only with Buffer × 100 (%) ([5]; pH 5.5, 50 ppm): 12.1% | Number of Residual Viruses in Test Solution/Number of Residual Viruses only with Buffer × 100 (%) ([5]; pH 5.5, 100 ppm): 10.1% | Number of Residual Viruses in Test Solution/Number of Residual Viruses only with Buffer × 100 (%) ([5]; pH 5.5, 150 ppm): <0.2% | Number of Residual Viruses in Test Solution/Number of Residual Viruses only with Buffer × 100 (%) ([5]; pH 5.5, 150 ppm, listed as chlorous acid aqueous solution): below the detectable limit | Number of Residual Viruses in Test Solution/Number of Residual Viruses only with Buffer × 100 (%) ([5]; pH 5.5, 200 ppm): <0.5% | Number of Residual Viruses in Test Solution/Number of Residual Viruses only with Buffer × 100 (%) ([5]; pH 5.5, 200 ppm, listed as chlorous acid aqueous solution): below the detectable limit | Number of Residual Viruses in Test Solution/Number of Residual Viruses only with Buffer × 100 (%) ([5]; pH 6.5, 10 ppm): 100% | Number of Residual Viruses in Test Solution/Number of Residual Viruses only with Buffer × 100 (%) ([5]; pH 6.5, 50 ppm): 63.6% | Number of Residual Viruses in Test Solution/Number of Residual Viruses only with Buffer × 100 (%) ([5]; pH 6.5, 100 ppm): 76.6% | Number of Residual Viruses in Test Solution/Number of Residual Viruses only with Buffer × 100 (%) ([5]; pH 6.5, 150 ppm): 22.2% | Number of Residual Viruses in Test Solution/Number of Residual Viruses only with Buffer × 100 (%) ([5]; pH 6.5, 200 ppm): <0.6% | Number of Residual Viruses in Test Solution/Number of Residual Viruses only with Buffer × 100 (%) ([5]; pH 7.5, 10 ppm): 100% | Number of Residual Viruses in Test Solution/Number of Residual Viruses only with Buffer × 100 (%) ([5]; pH 7.5, 50 ppm): 77.4% | Number of Residual Viruses in Test Solution/Number of Residual Viruses only with Buffer × 100 (%) ([5]; pH 7.5, 100 ppm): 84.7% | Number of Residual Viruses in Test Solution/Number of Residual Viruses only with Buffer × 100 (%) ([5]; pH 7.5, 150 ppm): 55.8% | Number of Residual Viruses in Test Solution/Number of Residual Viruses only with Buffer × 100 (%) ([5]; pH 7.5, 200 ppm): 16.8% | Number of Residual Viruses in Test Solution/Number of Residual Viruses only with Buffer × 100 (%) ([5]; pH 8.5, 10 ppm): 100% | Number of Residual Viruses in Test Solution/Number of Residual Viruses only with Buffer × 100 (%) ([5]; pH 8.5, 50 ppm): 75.3% | Number of Residual Viruses in Test Solution/Number of Residual Viruses only with Buffer × 100 (%) ([5]; pH 8.5, 100 ppm): 98.4% | Number of Residual Viruses in Test Solution/Number of Residual Viruses only with Buffer × 100 (%) ([5]; pH 8.5, 150 ppm): 80% | Number of Residual Viruses in Test Solution/Number of Residual Viruses only with Buffer × 100 (%) ([5]; pH 8.5, 200 ppm): 30% | concentration giving a sufficient effect ([5]; pH of 6.5 or lower (FIG. 2B)): ≥ 200 ppm | concentration giving a sufficient sterilizing effect ([5]; significant at pH of 5.5 or lower (FIG. 2B)): ≥ 50 ppm

[Na+].[O-]Cl [(4) sodium hypochlorite aqueous solution]
Number of Residual Viruses in Test Solution/Number of Residual Viruses only with Buffer × 100 (%) ([5]; pH 4.5, 200 ppm): below the detectable limit

sodium chlorite [Sodium chlorite aqueous solution]
ratio of the amount of residual infectious viruses ([1]; pH 5.5): 1.07 | residual relative infectivity ([1]; pH 5.5): 1/10 | ratio of the amount of residual infectious viruses ([1]; pH 6.5): 1.19 | ratio of the amount of residual infectious viruses ([1]; pH 7.5): 1.09 | ratio of the amount of residual infectious viruses ([1]; pH 8.5): 1.07 | Number of Residual Viruses in Test Solution/Number of Residual Viruses only with Buffer × 100 (%) ([5]; pH 4.5, 10 ppm): 52% | Number of Residual Viruses in Test Solution/Number of Residual Viruses only with Buffer × 100 (%) ([5]; pH 4.5, 50 ppm): 51.5% | Number of Residual Viruses in Test Solution/Number of Residual Viruses only with Buffer × 100 (%) ([5]; pH 4.5, 100 ppm): 27.6% | Number of Residual Viruses in Test Solution/Number of Residual Viruses only with Buffer × 100 (%) ([5]; pH 4.5, 150 ppm): 34.4% | Number of Residual Viruses in Test Solution/Number of Residual Viruses only with Buffer × 100 (%) ([5]; pH 4.5, 200 ppm): <0.4% | Number of Residual Viruses in Test Solution/Number of Residual Viruses only with Buffer × 100 (%) ([5]; pH 5.5, 10 ppm): 100% | Number of Residual Viruses in Test Solution/Number of Residual Viruses only with Buffer × 100 (%) ([5]; pH 5.5, 50 ppm): 87.3% | Number of Residual Viruses in Test Solution/Number of Residual Viruses only with Buffer × 100 (%) ([5]; pH 5.5, 100 ppm): 93.2% | Number of Residual Viruses in Test Solution/Number of Residual Viruses only with Buffer × 100 (%) ([5]; pH 5.5, 150 ppm): 100% | Number of Residual Viruses in Test Solution/Number of Residual Viruses only with Buffer × 100 (%) ([5]; pH 5.5, 200 ppm): 8.1% | Number of Residual Viruses in Test Solution/Number of Residual Viruses only with Buffer × 100 (%) ([5]; pH 6.5, 10 ppm): 100% | Number of Residual Viruses in Test Solution/Number of Residual Viruses only with Buffer × 100 (%) ([5]; pH 6.5, 50 ppm): 83.6% | Number of Residual Viruses in Test Solution/Number of Residual Viruses only with Buffer × 100 (%) ([5]; pH 6.5, 100 ppm): 87.9% | Number of Residual Viruses in Test Solution/Number of Residual Viruses only with Buffer × 100 (%) ([5]; pH 6.5, 150 ppm): 100% | Number of Residual Viruses in Test Solution/Number of Residual Viruses only with Buffer × 100 (%) ([5]; pH 6.5, 200 ppm): 15.3% | Number of Residual Viruses in Test Solution/Number of Residual Viruses only with Buffer × 100 (%) ([5]; pH 7.5, 10 ppm): 100% | Number of Residual Viruses in Test Solution/Number of Residual Viruses only with Buffer × 100 (%) ([5]; pH 7.5, 50 ppm): 90.4% | Number of Residual Viruses in Test Solution/Number of Residual Viruses only with Buffer × 100 (%) ([5]; pH 7.5, 100 ppm): 100% | Number of Residual Viruses in Test Solution/Number of Residual Viruses only with Buffer × 100 (%) ([5]; pH 7.5, 150 ppm): 100% | Number of Residual Viruses in Test Solution/Number of Residual Viruses only with Buffer × 100 (%) ([5]; pH 7.5, 200 ppm): 10.4% | Number of Residual Viruses in Test Solution/Number of Residual Viruses only with Buffer × 100 (%) ([5]; pH 8.5, 10 ppm): 100% | Number of Residual Viruses in Test Solution/Number of Residual Viruses only with Buffer × 100 (%) ([5]; pH 8.5, 50 ppm): 91.1% | Number of Residual Viruses in Test Solution/Number of Residual Viruses only with Buffer × 100 (%) ([5]; pH 8.5, 100 ppm): 78.2% | Number of Residual Viruses in Test Solution/Number of Residual Viruses only with Buffer × 100 (%) ([5]; pH 8.5, 150 ppm): 94% | Number of Residual Viruses in Test Solution/Number of Residual Viruses only with Buffer × 100 (%) ([5]; pH 8.5, 200 ppm): 7.6%
